Reference: paper PMC12037410, “Pharmacological targeting of BMAL1 modulates circadian and immune pathways” (Nature Chemical Biology, 2025)

The compounds below were run against BMAL1 (Homo sapiens, UniProt O00327). Settings: dTmB; binder.
Design: PASB domain (residues 338–449); Protein thermal shift (PTS) fragment screen on recombinant human BMAL1(PASB), shift of melting temperature

BMAL1, sequence (O00327 338-449): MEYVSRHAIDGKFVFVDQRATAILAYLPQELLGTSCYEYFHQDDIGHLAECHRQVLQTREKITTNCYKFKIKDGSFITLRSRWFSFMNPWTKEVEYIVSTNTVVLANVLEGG

Compound | Bmal1(PASB) dTmB [°C]
O=C(O)CCc1ncc(-c2ccccc2)o1 [Prestw-Frag-2693, Compound 126] | 0.10
Cc1nc(-c2ccccc2)c(-c2ccccc2)o1 [Prestw-Frag-2695, Compound 471] | -2.25
COc1ccc(C(C)=O)c(O)c1 [Prestw-Frag-2701, Compound 250] | 0.06
Oc1ccccc1C1CCCC1 [Prestw-Frag-2706, Compound 472] | -2.14
CN1C(=O)CCC1=O [Prestw-Frag-2713, Compound 293] | 0.17
NC(N)=NC(N)=Nc1ccc(Cl)cc1 [Prestw-Frag-2722, Compound 143] | -0.89
CCCOc1ccc(C(=O)OCC)cc1N [Prestw-Frag-2724, Compound 416] | -1.52
CS(=O)(=O)Nc1ccccc1 [Prestw-Frag-2755, Compound 281] | -0.10
O=c1ccn([C@H]2C[C@H](O)[C@@H](CO)O2)c(=O)[nH]1 [Prestw-Frag-2769, Compound 275] | 0.09
CCN(CC)CCOC(=O)C1(c2ccccc2)CCCC1 [Prestw-Frag-2774, Compound 413] | -1.85
c1ccc2c3c([nH]c2c1)CCCC3 [Prestw-Frag-2780, Compound 46] | -0.19
CCNC(=O)c1cccnc1 [Prestw-Frag-2794, Compound 205] | 0.17
COC(=O)c1c[nH]c2ccccc12 [Prestw-Frag-2799, Compound 456] | -0.14
OC1CCN(c2ccccc2F)CC1 [Prestw-Frag-2803, Compound 151] | -0.09
Cc1ccccc1Nc1ncccc1C(=O)O [Prestw-Frag-2806, Compound 441] | 0.29
O=C(O)c1cccnc1Nc1cccc(Cl)c1 [Prestw-Frag-2807, Compound 229] | -0.34
NCCCOc1cccc(CN2CCCCC2)c1 [Prestw-Frag-2808, Compound 156] | -1.04
Oc1cccc(CN2CCCCC2)c1 [Prestw-Frag-2809, Compound 115] | -0.43
CCNC(=O)c1ccc(Cl)cc1 [Prestw-Frag-2818, Compound 347] | -0.36
Nc1cccc(O)c1 [Prestw-Frag-2826, Compound 83] | -0.56
C[C@@H](O)c1cc(C(F)(F)F)cc(C(F)(F)F)c1 [Prestw-Frag-2849, Compound 236] | -0.34
Clc1cccc(N2CCNCC2)c1Cl [Prestw-Frag-2853, Compound 42] | -1.63

Compound | Bmal1(PASB) dTmB [°C]
O=C1CCc2ccc(O)cc2N1 [Prestw-Frag-2854, Compound 80] | -0.98
c1ccc(C(c2ccccc2)n2ccnc2)cc1 [Prestw-Frag-2868, Compound 465] | -6.29
c1ccc(-c2nn[nH]n2)cc1 [Prestw-Frag-2887, Compound 426] | 0.51
Oc1cc(Cl)c(Cl)cc1Cl [Prestw-Frag-2898, Compound 59] | -0.02
O=C(c1ccccc1)c1ccc(Br)cc1 [Prestw-Frag-2912, Compound 22] | -1.94
CC(C)(C)OC(=O)/C=C/c1ccccc1 [Prestw-Frag-2947, Compound 382] | -0.17
c1ccc(C2CNCCO2)cc1 (stereo not shown) [Prestw-Frag-2958, Compound 322] | -0.55
COc1ccc(CC(=O)O)cc1 [Prestw-Frag-2960, Compound 158] | 0.16
Nc1nc2c(s1)CCCC2 [Prestw-Frag-2972, Compound 480] | -5.59
CCOc1ccccc1OCC1CNCCO1 (stereo not shown) [Prestw-Frag-2992, Compound 332] | -0.48
CCOc1ccccc1O [Prestw-Frag-2995, Compound 314] | -0.47
c1ccc(-n2ccc3ccccc32)cc1 [Prestw-Frag-3011, Compound 447] | -0.07
CNS(=O)(=O)Cc1ccc2[nH]cc(CCN)c2c1 [Prestw-Frag-3017, Compound 50] | 0.72
c1ccc2nccnc2c1 [Prestw-Frag-3033, Compound 315] | 0.23
O=C1c2nccnc2C(O)N1c1ccc(Cl)cn1 (stereo not shown) [Prestw-Frag-3046, Compound 93] | -0.98
Cc1ccc(N)c(C#N)c1 [Prestw-Frag-3060, Compound 394] | -0.18
OCCc1ccc(Cl)cc1 [Prestw-Frag-3062, Compound 418] | 0.02
O=C1c2ccc(Cl)cc2CCc2cccnc21 [Prestw-Frag-3073, Compound 431] | -4.79
CCN(CC)C(=O)/C=C/c1ccccc1 [Prestw-Frag-3088, Compound 429] | -1.63
O=C(O)/C=C/c1cnc[nH]1 [Prestw-Frag-3090, Compound 19] | -1.08
OCc1ccc(F)cc1F [Prestw-Frag-3100, Compound 349] | 0.05
OCCn1cncn1 [Prestw-Frag-3101, Compound 350] | 0.19

Compound | Bmal1(PASB) dTmB [°C]
CCCCc1nc(Cl)c(CO)[nH]1 [Prestw-Frag-3114, Compound 336] | 0.07
CCN(CC)CCNC(=O)c1ccc(N)c(Cl)c1 [Prestw-Frag-3120, Compound 278] | -0.15
c1ccc2c(c1)CCCN2 [Prestw-Frag-3137, Compound 43] | 0.06
Fc1cccnc1N1CCCC1 [Prestw-Frag-3150, Compound 24] | -0.14
COc1ccc2c(c1)CCCC2 [Prestw-Frag-3188, Compound 32] | -0.52
Nc1nc(N)nc(-c2ccccc2)n1 [Prestw-Frag-3190, Compound 387] | -0.27
O=C(Cc1ccccc1F)C1CC1 [Prestw-Frag-3198, Compound 60] | -1.49
Cc1ccccc1C(=O)Nc1ccccc1 [Prestw-Frag-3202, Compound 39] | -1.32
Cc1cc(=O)n(-c2ccc(C)c(C)c2)[nH]1 [Prestw-Frag-3221, Compound 342] | 1.18
Oc1ccccc1OCC(F)(F)F [Prestw-Frag-3225, Compound 113] | -0.44
Cc1cn(-c2cc(N)cc(C(F)(F)F)c2)cn1 [Prestw-Frag-3241, Compound 458] | -2.09
Cc1cc(C)[nH]c(=O)n1 [Prestw-Frag-3247, Compound 190] | 0.01
O=C(O)CC(c1ccccc1)c1ccccc1 [Prestw-Frag-3250, Compound 130] | -0.49
FC(F)(F)c1nnc2n1CCNC2 [Prestw-Frag-3253, Compound 136] | 0.11
CN1CCN(c2cc(N)ncn2)CC1 [Prestw-Frag-3262, Compound 191] | -0.17
Nc1ccn([C@H]2C[C@H](O)[C@@H](CO)O2)c(=O)n1 [Prestw-Frag-3264, Compound 107] | -0.01
Nc1ncn([C@@H]2O[C@H](CO)[C@@H](O)[C@H]2O)c(=O)n1 [Prestw-Frag-3302, Compound 121] | -0.02
COc1ccc(S(=O)(=O)N2CCNCC2)cc1 [Prestw-Frag-3313, Compound 215] | -0.02
CCOc1ccccc1C(=N)N [Prestw-Frag-3314, Compound 150] | -0.32
Nc1ncc([N+](=O)[O-])s1 [Prestw-Frag-3324, Compound 478] | -7.14
Nc1ncnc2c1ncn2CCO [Prestw-Frag-3329, Compound 91] | -0.48
O=C(c1ccc(C(F)(F)F)cc1)C1CCCCC1 [Prestw-Frag-3334, Compound 225] | -0.21

Compound | Bmal1(PASB) dTmB [°C]
NC(=O)c1ccc2[nH]ccc2c1 [Prestw-Frag-3336, Compound 449] | -0.81
Nc1ccc(CS(=O)(=O)N2CCCC2)cc1 [Prestw-Frag-3341, Compound 142] | -0.24
COc1ccc(CC(C)N)cc1 (stereo not shown) [Prestw-Frag-3342, Compound 241] | -0.24
CS(=O)(=O)NC(Cc1ccccc1)C(=O)O (stereo not shown) [Prestw-Frag-3362, Compound 137] | 0.29
CNS(=O)(=O)CCc1ccccc1 [Prestw-Frag-3368, Compound 97] | -0.29
CCOC(=O)c1cccnc1 [Prestw-Frag-3382, Compound 96] | -0.50
O=C(CCCN1CCNCC1)c1ccc(F)cc1 [Prestw-Frag-3426, Compound 470] | -0.60
COc1ccc(CCN)cc1OC [Prestw-Frag-3454, Compound 202] | -0.13
Oc1ccc(Cc2ccccc2)cc1 [Prestw-Frag-3455, Compound 469] | -2.61
O=C1CNCCN1 [Prestw-Frag-3458, Compound 117] | -0.43
O=C1CN(Cc2ccccc2)CCN1 [Prestw-Frag-3459, Compound 48] | -0.65
CN1CCNCC1=O [Prestw-Frag-3460, Compound 125] | 0.00
Cn1cc(CC(=O)O)c2ccccc21 [Prestw-Frag-3461, Compound 75] | -0.44
NC1CCc2ccccc21 (stereo not shown) [Prestw-Frag-3462, Compound 90] | -0.81
O=C1COCCN1 [Prestw-Frag-3463, Compound 118] | -0.27
Cn1ccc(=O)[nH]1 [Prestw-Frag-3664, Compound 92] | 0.17
O=C1Cc2cc(F)ccc2N1 [Prestw-Frag-3667, Compound 261] | -0.23
O=C(O)CC1CCCCC1 [Prestw-Frag-3668, Compound 169] | 0.13
C#Cc1cccc(N)c1 [Prestw-Frag-3669, Compound 7] | -3.75
